Common to all, as to format: functional
Assay [1] concerns Mythimna separata. Kind of assay: Larvicidal activity against Oriental armyworm at 10 mg/L.
The test system of assay [2] is Mythimna separata. Put plainly: Larvicidal activity against Oriental armyworm at 5 mg/L.
Assay [3] has as its system Mythimna separata. Kind of assay: Larvicidal activity against Oriental armyworm at 50 mg/L.
Assay [4] has as its system Mythimna separata. Kind of assay: Larvicidal activity against Oriental armyworm at 25 mg/L.
Assay [5] has as its system Mythimna separata. Put plainly: Larvicidal activity against Oriental armyworm at 200 mg/L.
The subject of assay [6] is Mythimna separata. Kind of assay: Larvicidal activity against Oriental armyworm at 100 mg/L.
For assay [7], the system named is Aedes aegypti. Kind of assay: Larvicidal activity against mosquito larvae at 0.5 mg/L.
Assay [8] relates to Aedes aegypti. Put plainly: Larvicidal activity against mosquito larvae at 0.25 mg/L.
The test system of assay [9] is Mythimna separata. Put plainly: Larvicidal activity against Oriental armyworm at 2.5 mg/L.
Assay [10] has as its system Mythimna separata. Put plainly: Larvicidal activity against Oriental armyworm at 1 mg/L.
Assay [11] has as its system Mythimna separata. Put plainly: Larvicidal activity against Oriental armyworm at 0.5 mg/L.
Assay [12] concerns Aedes aegypti. Put plainly: Larvicidal activity against mosquito larvae at 0.1 mg/L.
Assay [13] relates to Aedes aegypti. Put plainly: Larvicidal activity against mosquito larvae at 0.05 mg/L.
For assay [14], the system named is Aedes aegypti. Kind of assay: Larvicidal activity against mosquito larvae at 0.025 mg/L.
Assay [15] deals with Aedes aegypti. Put plainly: Larvicidal activity against mosquito larvae at 2 mg/L.
Assay [16] has as its system Aedes aegypti. Kind of assay: Larvicidal activity against mosquito larvae at 1 mg/L.
Assay [17] concerns Aedes aegypti. Put plainly: Larvicidal activity against mosquito larvae at 0.01 mg/L.
Assay [18] has as its system Aedes aegypti. Put plainly: Larvicidal activity against mosquito larvae at 0.005 mg/L.
Assay [19] relates to Aedes aegypti. Kind of assay: Larvicidal activity against mosquito larvae at 0.0025 mg/L.
For assay [20], the system named is Mythimna separata. Kind of assay: Larvicidal activity against Oriental armyworm at 0.25 mg/L.
Assay [21] relates to Mythimna separata. Put plainly: Larvicidal activity against Oriental armyworm at 0.125 mg/L.
Assay [22] has as its system Aedes aegypti. Put plainly: Larvicidal activity against mosquito larvae at 0.001 mg/L.
The subject of assay [23] is Aedes aegypti. Put plainly: Larvicidal activity against mosquito larvae at 0.0001 mg/L.
For another assay, the system named is Spodoptera exigua. Put plainly: Larvicidal activity against beet armyworm.
Another assay has as its system Plutella xylostella. Kind of assay: Larvicidal activity against diamondback moth.
In a further assay the test system is Ostrinia nubilalis. Kind of assay: Larvicidal activity against corn Borer.
The test system of assay [24] is Aedes aegypti. Put plainly: Larvicidal activity against mosquito larvae at 0.00025 mg/L.

The record followed here is ChEMBL document CHEMBL1208750, “Synthesis, larvicidal activity, and SAR studies of new benzoylphenylureas containing oxime ether and oxime ester group” (2010).

≈ marks a conversion by molar mass, not a printed value.

In the case of `Cc1cccc(O/N=C/c2ccc(NC(=O)NC(=O)c3c(F)cccc3F)cc2)c1`, the Activity in the assay with Mythimna separata [1] was 10%; in the assay on Mythimna separata [2], 0%; in the assay on Mythimna separata [3] it was 50%; with Mythimna separata [4] it was 30%; in the assay with Mythimna separata [5], 100%; in the assay on Mythimna separata [6], 90%. Further, the Activity turned out to be 90% in the assay on Aedes aegypti [7] and 60% with Aedes aegypti [8].

Regarding `C/C(=N\OC(C)C)c1ccc(NC(=O)NC(=O)c2c(F)cccc2F)cc1`, the Activity in the assay with Mythimna separata [1] was determined as 100%; in the assay with Mythimna separata [2] it was 100%; with Mythimna separata [9], 65%; in the assay on Mythimna separata [10], 10%; in the assay on Mythimna separata [11], 0%; in the assay with Aedes aegypti [7], 100%. Moreover, the Activity turned out to be 100% with Aedes aegypti [8], 90% in the assay with Aedes aegypti [12], 90% in the assay with Aedes aegypti [13] and 30% in the assay with Aedes aegypti [14].

On to `C/C(=N\OCc1ccccc1)c1ccc(NC(=O)NC(=O)c2c(F)cccc2F)cc1`, for which the Activity with Mythimna separata [1] is 10%; with Mythimna separata [3], 90%; in the assay on Mythimna separata [4], 80%; with Aedes aegypti [15], 0%; in the assay with Aedes aegypti [16], 0%.

As to `CC(C)O/N=C(\C#N)c1ccc(NC(=O)NC(=O)c2c(F)cccc2F)cc1`, the Activity was 0% in the assay with Aedes aegypti [17]; 80% in the assay with Mythimna separata [1]; 40% in the assay on Mythimna separata [2]; 0% with Mythimna separata [9]; 100% in the assay on Mythimna separata [3]; 100% in the assay on Aedes aegypti [8]. Further, the Activity in the assay with Aedes aegypti [12] is listed as 100%; with Aedes aegypti [13], 50%; in the assay with Aedes aegypti [14] it was 10%.

As to `N#C/C(=N\OCc1ccccc1)c1ccc(NC(=O)NC(=O)c2c(F)cccc2F)cc1`, the Activity stood at 0% in the assay on Mythimna separata [5]; 100% in the assay with Aedes aegypti [7]; 100% with Aedes aegypti [8]; 90% with Aedes aegypti [12]; 0% with Aedes aegypti [13].

Regarding `CC(C)O/N=C/c1ccc(NC(=O)NC(=O)c2c(F)cccc2F)c(Cl)c1`, the Activity in the assay with Aedes aegypti [17] stood at 100%; with Mythimna separata [2], 100%; with Mythimna separata [9] it was 90%; in the assay with Mythimna separata [10] it was 10%; in the assay with Mythimna separata [11], 0%; in the assay with Aedes aegypti [7], 100%. Besides, the Activity with Aedes aegypti [18] is on record as 30%.

Turning to `CC(C)O/N=C/c1ccc(NC(=O)NC(=O)c2c(F)cccc2F)c(F)c1`, the Activity in the assay on Aedes aegypti [17] was 100%; with Aedes aegypti [19] it was 50%; in the assay with Mythimna separata [9], 100%; in the assay on Mythimna separata [10] it was 100%; in the assay with Mythimna separata [11] it was 90%; in the assay on Mythimna separata [20], 10%. The Activity in the assay on Mythimna separata [21] came to 0%; with Aedes aegypti [18] it was 100%; with Aedes aegypti [22], 20%; in the assay with Aedes aegypti [23], 10%. Further, the LC50 was determined as 4.32 µg/mL (≈ 11.4 µM) in the assay with Spodoptera exigua, 2.75 µg/mL (≈ 7.25 µM) in the assay with Plutella xylostella and 7.59 µg/mL (≈ 20 µM) in the assay on Ostrinia nubilalis.

With `CC(C)O/N=C/c1ccc(NC(=O)NC(=O)c2c(F)cccc2F)cc1Cl`, the Activity with Aedes aegypti [17] was 100%; in the assay with Aedes aegypti [19] it was 30%; with Mythimna separata [2], 100%; in the assay on Mythimna separata [9] it was 90%; in the assay with Mythimna separata [10] it was 10%; with Mythimna separata [11], 0%. Besides, the Activity in the assay on Aedes aegypti [18] came to 100%; with Aedes aegypti [22], 10%.

As for `CC(=O)O/N=C/c1ccc(NC(=O)NC(=O)c2c(F)cccc2F)cc1`, the Activity was 0% in the assay with Mythimna separata [1]; 20% in the assay with Mythimna separata [3]; 10% in the assay with Mythimna separata [4]; 100% with Mythimna separata [5]; 50% in the assay with Mythimna separata [6]; 20% with Aedes aegypti [7]. The Activity in the assay with Aedes aegypti [8] is listed as 0%; in the assay on Aedes aegypti [15], 100%; with Aedes aegypti [16], 100%.

Consider `O=C(NC(=O)c1c(F)cccc1F)Nc1ccc(/C=N/OC(=O)c2ccccc2)cc1`, for which the Activity amounted to 80% with Mythimna separata [1]; 40% with Mythimna separata [2]; 0% in the assay on Mythimna separata [9]; 90% with Mythimna separata [4]; 100% in the assay with Aedes aegypti [7]; 80% with Aedes aegypti [8]. The Activity in the assay with Aedes aegypti [12] was found to be 30%; in the assay on Aedes aegypti [16], 100%.

Turning to `Cc1cc(C)cc(C(=O)O/N=C/c2ccc(NC(=O)NC(=O)c3c(F)cccc3F)cc2)c1`, the Activity in the assay with Mythimna separata [1] came to 100%; with Mythimna separata [2] it was 90%; in the assay on Mythimna separata [9], 0%; in the assay on Mythimna separata [4], 100%; in the assay on Aedes aegypti [7], 100%; in the assay on Aedes aegypti [8], 100%. Besides, the Activity in the assay on Aedes aegypti [12] is given as 90%; with Aedes aegypti [13], 90%; in the assay on Aedes aegypti [14] it was 10%.

Consider `CC(C)C(=O)O/N=C/c1ccc(NC(=O)NC(=O)c2c(F)cccc2F)cc1`, for which the Activity in the assay with Mythimna separata [1] turned out to be 100%; in the assay with Mythimna separata [2], 100%; in the assay with Mythimna separata [9], 20%; in the assay on Mythimna separata [10], 10%; in the assay on Mythimna separata [11], 0%; with Aedes aegypti [7] it was 100%. The Activity in the assay with Aedes aegypti [8] was 100%; with Aedes aegypti [12], 70%; with Aedes aegypti [13], 10%; with Aedes aegypti [14] it was 0%.

For `O=C(NC(=O)c1c(F)cccc1F)Nc1ccc(/C=N/Oc2ccc(Cl)cc2)cc1`, the Activity with Aedes aegypti [19] was 100%; in the assay on Mythimna separata [1] it was 100%; in the assay on Mythimna separata [2], 100%; in the assay with Mythimna separata [9], 80%; with Mythimna separata [10] it was 0%; in the assay with Aedes aegypti [22] it was 100%. In the assay on Aedes aegypti [24], this compound had an Activity of 20%.

As to `O=C(NC(=O)c1c(F)cccc1F)Nc1ccc(/C=N/Oc2ccc(Br)cc2)cc1`, the Activity came out at 100% with Aedes aegypti [17]; 40% with Aedes aegypti [19]; 100% with Mythimna separata [1]; 90% in the assay with Mythimna separata [2]; 90% in the assay with Mythimna separata [9]; 0% in the assay with Mythimna separata [10]. Also, the Activity with Mythimna separata [3] is on record as 90%; with Mythimna separata [4], 100%; with Aedes aegypti [18] it was 100%; in the assay on Aedes aegypti [22], 0%; with Aedes aegypti [23], 90%.

As to `O=C(NC(=O)c1c(F)cccc1F)Nc1ccc(/C=N/Oc2ccccc2)cc1`, the Activity with Aedes aegypti [17] is listed as 100%; with Aedes aegypti [19], 10%; with Mythimna separata [1], 20%; with Mythimna separata [2] it was 0%; with Mythimna separata [4] it was 40%; in the assay on Mythimna separata [5], 100%. In addition, the figures for the Activity in the assay on Mythimna separata [6], in the assay on Aedes aegypti [14] and in the assay on Aedes aegypti [18] were 100%, 100% and 20%, respectively.

In the case of `CC(C)(C)O/N=C/c1ccc(NC(=O)NC(=O)c2c(F)cccc2F)c(F)c1`, the Activity worked out at 100% in the assay with Mythimna separata [9], 100% in the assay on Mythimna separata [10], 90% in the assay with Mythimna separata [11] and 10% with Mythimna separata [20]. In addition, the results for the LC50 in the assay on Spodoptera exigua, in the assay on Plutella xylostella and in the assay with Ostrinia nubilalis were 3.37 µg/mL (≈ 8.57 µM), 0.57 µg/mL (≈ 1.45 µM) and 10 µg/mL (≈ 25.5 µM), respectively.

With `CC(C)(C)O/N=C/c1cccc(NC(=O)NC(=O)c2c(F)cccc2F)c1`, the figures for the Activity in the assay with Mythimna separata [3], in the assay on Mythimna separata [4] and with Mythimna separata [6] were 100%, 90% and 100%, respectively.

The compound `CC(C)(C)O/N=C/c1ccccc1NC(=O)NC(=O)c1c(F)cccc1F` yielded an Activity in the assay on Mythimna separata [5] of 0%.

With `CC(C)(C)O/N=C/Cc1ccc(NC(=O)NC(=O)c2c(F)cccc2F)cc1`, the Activity in the assay on Mythimna separata [1] was determined as 80%; with Mythimna separata [3], 100%; with Mythimna separata [4] it was 100%.

As to `CC(C)O/N=C/c1ccc(NC(=O)NC(=O)c2c(F)cccc2F)cc1`, the Activity was found to be 15% in the assay with Aedes aegypti [19]; 100% in the assay on Mythimna separata [9]; 100% in the assay with Mythimna separata [10]; 50% in the assay with Mythimna separata [11]; 0% with Mythimna separata [20]; 75% with Aedes aegypti [18]. Moreover, in the assay with Aedes aegypti [22], the Activity was determined as 0%.

In the case of `O=C(NC(=O)c1c(F)cccc1F)Nc1ccc(CO/N=C(/c2ccc(Cl)cc2)C2CC2)cc1` [FLUCYCLOXURON], the Activity is 0% in the assay on Aedes aegypti [17]; 95% in the assay on Mythimna separata [1]; 90% in the assay on Mythimna separata [2]; 50% in the assay on Mythimna separata [9]; 10% with Mythimna separata [10]; 0% in the assay with Mythimna separata [11]. Besides, the values for the Activity in the assay on Aedes aegypti [12], with Aedes aegypti [13] and in the assay with Aedes aegypti [14] were 100%, 100% and 15%, respectively. The values for the LC50 in the assay on Spodoptera exigua, in the assay with Plutella xylostella and in the assay on Ostrinia nubilalis were 102 µg/mL (≈ 210 µM), 72.9 µg/mL (≈ 151 µM) and 9.25 µg/mL (≈ 19.1 µM), respectively.

As usually defined, the LC50 is the concentration that kills 50% of the test population. A high value points to a less lethal substance.
